Where a name gives a salt, the structure may show the parent alone. Read-outs that look alike come from different tables or passages of the source.
Tests used:
[1] = cited from earlier work
[2] = Single-ascending dose clinical trial: plasma PK and safety
Protocol: (§1) SSAO inhibition was determined by measuring relative reductions in plasma H2O2 generation after addition of an exogenous substrate (benzylamine). […] Safety was assessed for 7 (±3) days after dosing.
(§2) Plasma PK parameters were determined by non-compartmental analysis. […] Percent change in total amine oxidase activity was determined relative to the corresponding pre-dose (baseline) samples.

[3] = male, human, in vivo
Protocol: as §1, §2

[4] = tested on: FXR-regulated gene expression in human HuH7 hepatoma cells; assay: cells; details: Huh-7, 11 h
Protocol: EC50 values for FXR-regulated gene expression were determined using a cell-based RNA assay.

In the case of `O=C(O)c1ccnc(N2CC(O)(c3ccc(OCc4c(-c5c(Cl)cccc5Cl)noc4C4CC4)cc3Cl)C2)c1` [cilofexor], the “pruritus in longer term studies” value [1] is listed as “known to result in pruritus”.

In the case of `CC[C@H]1[C@@H](O)[C@@H]2[C@H](CC[C@]3(C)[C@@H]([C@H](C)CCNC(=O)NS(=O)(=O)c4ccc(C(C)(C)C)cc4)CC[C@@H]23)[C@@]2(C)CC[C@@H](O)C[C@@H]12` [EDP-305], the “pruritus in longer term studies” value [1] is given as “known to result in pruritus”.

For `O=C(O)c1cc(F)c2nc(N3[C@@H]4CC[C@H]3C[C@@H](OCc3c(-c5ccccc5OC(F)(F)F)noc3C3CC3)C4)sc2c1` [tropifexor], the “pruritus in longer term studies” value [1] is listed as “known to result in pruritus”.

For `COC1CCN(c2ncc(OC/C(=C/F)CN)cn2)CC1` [tosylate salt of Compound 2], the “Subject incidence of TEAEs considered possibly treatment-related” value ([2]; 1 mg or placebo (n = 8)) was 0, the “Subject incidence of any TEAE” value ([2]; 1 mg or placebo (n = 8)) was 0 and the “TEAE frequency: constipation” value ([2]; 1 mg or placebo (n = 8)) was 0. The “TEAE frequency: contact dermatitis” value ([2]; 1 mg or placebo (n = 8)) was 0, the “TEAE frequency: dysgeusia” value ([2]; 1 mg or placebo (n = 8)) was 0 and the “TEAE frequency: headache” value ([2]; 1 mg or placebo (n = 8)) was 0. The “TEAE frequency: sore throat” value ([2]; 1 mg or placebo (n = 8)) was 0, the “TEAE frequency: upper respiratory tract infection” value ([2]; 1 mg or placebo (n = 8)) was 0 and the “Subject incidence of TEAEs considered possibly treatment-related” value ([2]; 3 mg or placebo (n = 8)) was 0. For the same compound, the “Subject incidence of any TEAE” value ([2]; 3 mg or placebo (n = 8)) was 0, the “TEAE frequency: constipation” value ([2]; 3 mg or placebo (n = 8)) was 0 and the “TEAE frequency: contact dermatitis” value ([2]; 3 mg or placebo (n = 8)) was 0. The “TEAE frequency: dysgeusia” value ([2]; 3 mg or placebo (n = 8)) was 0, the “TEAE frequency: headache” value ([2]; 3 mg or placebo (n = 8)) was 0 and the “TEAE frequency: sore throat” value ([2]; 3 mg or placebo (n = 8)) was 0. The “TEAE frequency: upper respiratory tract infection” value ([2]; 3 mg or placebo (n = 8)) was 0, the “Subject incidence of TEAEs considered possibly treatment-related” value ([2]; 6 mg (n = 8)) was 0 and the “Subject incidence of any TEAE” value ([2]; 6 mg (n = 8)) was 2 (25). For the same compound, the “TEAE frequency: constipation” value ([2]; 6 mg (n = 8)) was 0, the “TEAE frequency: contact dermatitis” value ([2]; 6 mg (n = 8)) was 2 (25) and the “TEAE frequency: dysgeusia” value ([2]; 6 mg (n = 8)) was 0. The “TEAE frequency: headache” value ([2]; 6 mg (n = 8)) was 0, the “TEAE frequency: sore throat” value ([2]; 6 mg (n = 8)) was 1 (12.5) and the “TEAE frequency: upper respiratory tract infection” value ([2]; 6 mg (n = 8)) was 0. For the same compound, the “Subject incidence of TEAEs considered possibly treatment-related” value ([2]; 10 mg or placebo (n = 8)) was 1 (12.5), the “Subject incidence of any TEAE” value ([2]; 10 mg or placebo (n = 8)) was 3 (37.5) and the “TEAE frequency: constipation” value ([2]; 10 mg or placebo (n = 8)) was 1 (12.5). For the same compound, the “TEAE frequency: contact dermatitis” value ([2]; 10 mg or placebo (n = 8)) was 0, the “TEAE frequency: dysgeusia” value ([2]; 10 mg or placebo (n = 8)) was 1 (12.5) and the “TEAE frequency: headache” value ([2]; 10 mg or placebo (n = 8)) was 1 (12.5). For the same compound, the “TEAE frequency: sore throat” value ([2]; 10 mg or placebo (n = 8)) was 0, the “TEAE frequency: upper respiratory tract infection” value ([2]; 10 mg or placebo (n = 8)) was 1 (12.5) and the “Subject incidence of TEAEs considered possibly treatment-related” value ([2]; All (n = 32)) was 1 (3.1). The “Subject incidence of any TEAE” value ([2]; All (n = 32)) was 5 (15.6), the “TEAE frequency: constipation” value ([2]; All (n = 32)) was 1 (3.1) and the “TEAE frequency: contact dermatitis” value ([2]; All (n = 32)) was 2 (6.3). The “TEAE frequency: dysgeusia” value ([2]; All (n = 32)) was 1 (3.1), the “TEAE frequency: headache” value ([2]; All (n = 32)) was 1 (3.1) and the “TEAE frequency: sore throat” value ([2]; All (n = 32)) was 1 (3.1). For the same compound, the “TEAE frequency: upper respiratory tract infection” value ([2]; All (n = 32)) was 1 (3.1), the clearance from plasma ([2]; single doses, healthy humans) was “rapidly cleared from plasma” and the “TEAE frequency: oral herpes” value [3] was 1 (3.1).

Compound `CC[C@H]1[C@@H](O)[C@@H]2[C@H](CC[C@]3(C)[C@@H]([C@H](C)CCC(=O)O)CC[C@@H]23)[C@@]2(C)CC[C@@H](O)C[C@@H]12` [OCA, obeticholic acid, reference compound] has an EC50 ([4]; read-out: EC50, BSEP Gene induction/HuH7) of 200 nM, an EC50 ([4]; read-out: EC50, FGF-19 Gene Induction/HuH7) of 130 nM and an EC50 ([4]; read-out: EC50, SHP Gene induction/HuH7) of 200 nM. For the same compound, the “pruritus in longer term studies” value [1] was “known to result in pruritus”.

— patent US20210379040A1, “COMBINATION TREATMENT OF LIVER DISORDERS” (Terns Pharmaceuticals, Inc., priority 2020, published 2021)
